The test system of this assay is MDA-MB-468. As to the kind of experiment: Antiproliferative activity against MDA-MB-468 cells by MTT assay. It is filed as functional, cell-based. Particulars: Homo sapiens. For orientation: Formazan colour is commonly taken as a measure of viable cells.

By IC50 is commonly meant the concentration that inhibits the measured activity by half. Low readings indicate inhibition by little substance, high ones a need for much substance. Consider `c1ccc(Sc2nc(N3CCOCC3)nc(N3CCOCC3)n2)nc1`, for which the IC50 is greater than 100 µM. Then `c1ccc(Sc2nc(N3CC3)nc(N3CC3)n2)nc1`, with greater than 100 µM; and `c1ccc(Sc2nc(N3CCSCC3)nc(N3CCSCC3)n2)nc1`, with greater than 100 µM.

These data come from ChEMBL document CHEMBL1144625, “A new platinum complex of triazine demonstrates G1 arrest with novel biological profile in human breast cancer cell line, MDA-MB-468” (Bioorg Med Chem Lett, 2007).
